The test concerns the target mGluR5 (Homo sapiens, UniProt P41594). Put plainly: mGluR5 PAM EC50 (positive allosteric modulator potency). The test is classed as cell-based.
Chain of mGluR5 (P41594 21-1212): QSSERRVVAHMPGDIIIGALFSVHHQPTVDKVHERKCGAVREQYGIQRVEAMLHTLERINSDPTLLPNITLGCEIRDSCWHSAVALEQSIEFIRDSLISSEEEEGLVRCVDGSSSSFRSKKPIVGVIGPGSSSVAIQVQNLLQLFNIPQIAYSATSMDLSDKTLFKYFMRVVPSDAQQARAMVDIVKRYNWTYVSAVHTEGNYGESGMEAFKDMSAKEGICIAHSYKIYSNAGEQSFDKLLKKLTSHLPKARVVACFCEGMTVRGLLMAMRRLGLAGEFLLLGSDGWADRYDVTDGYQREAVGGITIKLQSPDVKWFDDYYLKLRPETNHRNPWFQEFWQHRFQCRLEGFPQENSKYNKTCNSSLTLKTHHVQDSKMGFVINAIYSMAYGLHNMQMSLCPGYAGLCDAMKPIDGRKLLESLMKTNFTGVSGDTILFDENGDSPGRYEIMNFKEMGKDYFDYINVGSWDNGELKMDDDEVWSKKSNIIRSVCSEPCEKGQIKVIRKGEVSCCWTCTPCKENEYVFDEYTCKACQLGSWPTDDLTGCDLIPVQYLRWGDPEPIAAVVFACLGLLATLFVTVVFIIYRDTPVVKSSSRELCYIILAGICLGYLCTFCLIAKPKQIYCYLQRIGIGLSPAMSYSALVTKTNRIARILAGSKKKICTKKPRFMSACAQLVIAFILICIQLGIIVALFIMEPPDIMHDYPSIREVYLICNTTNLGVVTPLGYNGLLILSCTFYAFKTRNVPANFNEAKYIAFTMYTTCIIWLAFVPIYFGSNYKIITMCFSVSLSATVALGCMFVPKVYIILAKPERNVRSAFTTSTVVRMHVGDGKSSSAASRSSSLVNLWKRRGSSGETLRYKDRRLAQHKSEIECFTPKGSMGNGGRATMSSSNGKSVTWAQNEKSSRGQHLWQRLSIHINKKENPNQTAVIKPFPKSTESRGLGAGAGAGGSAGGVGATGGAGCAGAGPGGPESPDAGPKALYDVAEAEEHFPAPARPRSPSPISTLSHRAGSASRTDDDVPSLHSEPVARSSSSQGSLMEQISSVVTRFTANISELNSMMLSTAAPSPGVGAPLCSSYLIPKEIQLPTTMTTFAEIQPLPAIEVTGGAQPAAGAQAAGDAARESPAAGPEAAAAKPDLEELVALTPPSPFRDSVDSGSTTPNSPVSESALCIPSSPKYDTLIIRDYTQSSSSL
As a reminder, the EC50 is the midpoint of the concentration-response curve. A higher EC50 goes with a need for much substance. The compound `O=c1c2ccc(C#Cc3ccccn3)cc2nc2n1C[C@H]1CCCN21` (stereo in doubt) [Example 1.22] had an EC50 of 30 to 100 nM.
The value for `CC1(C)CCn2c(nc3cc(C#Cc4cc(C#N)ccn4)ccc3c2=O)C1` [Example 2.25a, 2-((7,7-dimethyl-11-oxo-7,8,9,11-tetrahydro-6H-pyrido[2,1-b]quinazolin-3-yl)ethynyl)isonicotinonitrile] was 10 to 30 nM; that for `C=CC1(O)CCc2nc3cc(C#Cc4ccccn4)ccc3c(=O)n2C1` (stereo not shown) [Example 2.18, 8-hydroxy-3-(pyridin-2-ylethynyl)-8-vinyl-8,9-dihydro-6H-pyrido[2,1-b]quinazolin-11(7H)-one] was 300 to 1000 nM.
For `CCC1(F)CCc2nc3cc(C#Cc4ccccn4)cnc3c(=O)n2CC1` (stereo not shown) [Example 3.18, 8-ethyl-8-fluoro-3-(pyridin-2-ylethynyl)-7,8,9,10-tetrahydropyrido[3′,2′:4,5]pyrimido [1,2-a]azepin-12(6H)-one] the value was 30 to 100 nM; for `O=c1c2ccc(C#Cc3ccccn3)cc2nc2n1CCC1(CCCO1)CC2` (single isomer, unassigned) [Example 3.3a], 30 to 100 nM.
On to `CC1(C)CC(F)c2nc3cc(C#Cc4ccccn4)cnc3c(=O)n2C1` (single isomer, unassigned) [Example 2.15a], for which the EC50 lay within 30 to 100 nM.
For `CC1(C)CCc2nc3cc(-c4nnc(-c5ccccn5)s4)ccc3c(=O)n2C1` [Example 6.38, 8,8-dimethyl-3-(5-(pyridin-2-yl)-1,3,4-thiadiazol-2-yl)-8,9-dihydro-6H-pyrido[2,1-b]quinazolin-11(7H)-one] the value was 100 to 300 nM; for `COc1ccc(C#Cc2ccc3c(=O)n4c(nc3c2)CCC(C)(C)C4)nc1` [Example 2.40, 3-((5-methoxypyridin-2-yl)ethynyl)-8,8-dimethyl-8,9-dihydro-6H-pyrido[2,1-b]quinazolin-11(7H)-one], 30 to 100 nM.
The value for `CC1(C)CCc2nc3cc(-c4nc(-c5ccccn5)c[nH]4)ccc3c(=O)n2C1` [Example 6.21, 8,8-dimethyl-3-(4-(pyridin-2-yl)-1H-imidazol-2-yl)-8,9-dihydro-6H-pyrido[2,1-b]quinazolin-11(7H)-one] was 300 to 1000 nM.
For `CC1(C)CCc2nc3cc(C#Cc4ccc(C#N)cn4)ccc3c(=O)n2C1` [Example 2.39, 6-((8,8-dimethyl-11-oxo-7,8,9,11-tetrahydro-6H-pyrido[2,1-b]quinazolin-3-yl)ethynyl)nicotinonitrile] the value was 10 to 30 nM; for `CC1(C)CCn2c(nc3cc(C#Cc4ccccn4)c(F)cc3c2=O)C1` [Example 2.31a, 2-fluoro-7,7-dimethyl-3-(pyridin-2-ylethynyl)-8,9-dihydro-6H-pyrido[2,1-b]quinazolin-11(7H)-one], 30 to 100 nM.
As to `COCCC1Cc2nc3cc(C#Cc4ccccn4)cnc3c(=O)n2C1` (stereo not shown) [Example 1.18, 7-(2-methoxyethyl)-3-(pyridin-2-ylethynyl)-7,8-dihydropyrido[3,2-d]pyrrolo[1,2-a]pyrimidin-10(6H)-one], the EC50 fell in the range of 300 to 1000 nM.
For `O=c1c2ccc(C#Cc3ccccn3)cc2nc2n1CCC(F)CC2` (single isomer, unassigned) [Example 3.1a] the value was 30 to 100 nM; for `O=c1c2ccc(C#Cc3ccccn3)cc2nc2n1CCC(O)CC2` (single isomer, unassigned) [Example 3.2a], 300 to 1000 nM.
For the compound `CC1(C)CCn2c(nc3cc(/C=C/c4cc(C#N)ccn4)ccc3c2=O)C1` [Example 4.1a, (E)-2-(2-(7,7-dimethyl-11-oxo-7,8,9,11-tetrahydro-6H-pyrido[2,1-b]quinazolin-3-yl)vinyl)isonicotinonitrile], the EC50 fell in the range of 300 to 1000 nM.
For `CCC1CCn2c(nc3cc(C#Cc4ccccn4)cnc3c2=O)C1` (single isomer, unassigned) [Example 2.22c] the value was 10 to 30 nM; for `CC(C)(F)C1Cc2nc3cc(C#Cc4ccccn4)ccc3c(=O)n2C1` (single isomer, unassigned) [Example 1.3a], under 10 nM.
For `CC1Cc2nc3cc(C#Cc4ccccn4)cnc3c(=O)n2CCC1(F)F` (single isomer, unassigned) [Example 3.31c] the value was 30 to 100 nM; for `COCCC1Cc2nc3cc(C#Cc4ccccn4)ccc3c(=O)n2C1` (stereo not shown) [Example 1.5, 2-(2-methoxyethyl)-6-(pyridin-2-ylethynyl)-2,3-dihydropyrrolo[2,1-b]quinazolin-9(1H)-one], 100 to 300 nM; for `CC1CCn2c(nc3cc(C#Cc4ccccn4)cnc3c2=O)C1` (single isomer, unassigned) [Example 2.17b], 300 to 1000 nM.
For `O=c1c2ccc(C#Cc3ccccn3)cc2nc2n1CC(CF)C2` (single isomer, unassigned) [Example 1.9b] the value was 300 to 1000 nM; for `CC1(CO)CCc2nc3cc(C#Cc4ccccn4)ccc3c(=O)n2C1` (stereo not shown) [Example 2.99, 8-(hydroxymethyl)-8-methyl-3-(pyridin-2-ylethynyl)-8,9-dihydro-6H-pyrido[2,1-b]quinazolin-11(7H)-one], 30 to 100 nM.
On to `CC1(C)CCc2nc3cc(C#Cc4ncccc4F)ccc3c(=O)n2C1` [Example 2.86, 3-((3-fluoropyridin-2-yl)ethynyl)-8,8-dimethyl-8,9-dihydro-6H-pyrido[2,1-b]quinazolin-11(7H)-one], for which the EC50 is under 10 nM.
The value for `CC1(F)CCc2nc3cc(C#Cc4ccccn4)cnc3c(=O)n2CC1` (single isomer, unassigned) [Example 3.10a] was 100 to 300 nM; that for `CC1CCc2nc3cc(C#Cc4ccccn4)cnc3c(=O)n2C1` (single isomer, unassigned) [Example 2.16b] was 100 to 300 nM.
The compound `CC(C)(F)C1Cc2nc3cc(C#Cc4ccccn4)ccc3c(=O)n2C1` (single isomer, unassigned) [Example 1.3b] returned an EC50 of 100 to 300 nM.
For `CC1Cn2c(nc3cc(C#Cc4ccccn4)cnc3c2=O)CCC1(F)F` (single isomer, unassigned) [Example 3.31e] the value was 30 to 100 nM; for `CC1CCc2nc3cc(C#Cc4cc(C#N)ccn4)ccc3c(=O)n2CC1` (stereo not shown) [Example 3.19, 2-((8-methyl-12-oxo-6,7,8,9,10,12-hexahydroazepino[2,1-b]quinazolin-3-yl)ethynyl)isonicotinonitrile], 30 to 100 nM.
The value for `Cc1cc(C#Cc2ccc3c(=O)n4c(nc3c2)CCC(C)(C)C4)sn1` [Example 2.51, 8,8-dimethyl-3-((3-methylisothiazol-5-yl)ethynyl)-8,9-dihydro-6H-pyrido[2,1-b]quinazolin-11(7H)-one] was under 10 nM; that for `CCC1CCc2nc3cc(C#Cc4ccccn4)cnc3c(=O)n2CC1` (single isomer, unassigned) [Example 3.14a] was 30 to 100 nM; that for `CC1(C)CCc2nc3cc(NC(=O)c4ccccn4)ccc3c(=O)n2C1` [Example 4.7, N-(8,8-dimethyl-11-oxo-7,8,9,11-tetrahydro-6H-pyrido[2,1-b]quinazolin-3-yl)picolinamide] was 100 to 300 nM.
For `CCC1CCc2nc3cc(C#Cc4ccccn4)ccc3c(=O)n2CC1` (single isomer, unassigned) [Example 3.13a] the value was under 10 nM; for `CC1(C)CCc2nc3cc(C#Cc4cccnc4F)ccc3c(=O)n2C1` [Example 2.87, 3-((2-fluoropyridin-3-yl)ethynyl)-8,8-dimethyl-8,9-dihydro-6H-pyrido[2,1-b]quinazolin-11(7H)-one], under 10 nM; for `CC1CCc2nc3cc(C#Cc4ccccn4)ccc3c(=O)n2C1` (single isomer, unassigned) [Example 2.2b], 10 to 30 nM.
`CC1(C)CCc2nc3cc(C#Cc4ncc(F)cn4)ccc3c(=O)n2C1` [Example 2.54, 3-((5-fluoropyrimidin-2-yl)ethynyl)-8,8-dimethyl-8,9-dihydro-6H-pyrido[2,1-b]quinazolin-11(7H)-one] came in with an EC50 of 30 to 100 nM.
Consider `CC1(C)CCc2nc3cc(-c4nnc(-c5ccccn5)o4)ccc3c(=O)n2C1` [Example 6.35, 8,8-dimethyl-3-(5-(pyridin-2-yl)-1,3,4-oxadiazol-2-yl)-8,9-dihydro-6H-pyrido[2,1-b]quinazolin-11(7H)-one], for which the EC50 lay in the range of 100 to 300 nM.
The value for `CC1Cn2c(nc3cc(C#Cc4ccccn4)ccc3c2=O)CN1C` (single isomer, unassigned) [Example 2.5a] was 30 to 100 nM; that for `O=c1c2ncc(C#Cc3ccccn3)cc2nc2n1CCC(C(F)(F)F)C2` (stereo not shown) [Example 2.21, 3-(pyridin-2-ylethynyl)-7-(trifluoromethyl)-8,9-dihydro-6H-dipyrido[1,2-a:3′,2′-d]pyrimidin-11(7H)-one] was 30 to 100 nM; that for `COCC1Cc2nc3cc(C#Cc4ccccn4)ccc3c(=O)n2C1` (single isomer, unassigned) [Example 1.1b] was 100 to 300 nM.
The value for `CC1CCn2c(nc3cc(C#Cc4ccccn4)ccc3c2=O)C1` (single isomer, unassigned) [Example 2.1a] was 10 to 30 nM; that for `Cc1cc(C#Cc2ccc3c(=O)n4c(nc3c2)CCC(C)(C)C4)ccn1` [Example 2.46, 8,8-dimethyl-3-((2-methylpyridin-4-yl)ethynyl)-8,9-dihydro-6H-pyrido[2,1-d]quinazolin-11(7H)-one] was 10 to 30 nM; that for `CC1Cn2c(nc3cc(C#Cc4ccccn4)ccc3c2=O)CO1` (single isomer, unassigned) [Example 2.4b] was under 10 nM.
For `CC1(C)CCc2nc3cc(C#Cc4cnccc4F)ccc3c(=O)n2C1` [Example 2.90, 3-((4-fluoropyridin-3-yl)ethynyl)-8,8-dimethyl-8,9-dihydro-6H-pyrido[2,1-b]quinazolin-11(7H)-one] the value was under 10 nM; for `CC1(C)CCn2c(nc3cc(C#Cc4cccc(C#N)n4)ccc3c2=O)C1` [Example 2.24a, 6-((7,7-dimethyl-11-oxo-7,8,9,11-tetrahydro-6H-pyrido[2,1-b]quinazolin-3-yl)ethynyl)picolinonitrile], under 10 nM; for `O=c1c2ccc(C#Cc3ccccn3)cc2nc2n1CCC(O)CC2` (single isomer, unassigned) [Example 3.2b], 30 to 100 nM.
In turn, `CC(C)(O)C1Cc2nc3cc(C#Cc4ccccn4)ccc3c(=O)n2C1` (single isomer, unassigned) [Example 1.2a] had an EC50 of 10 to 30 nM.

(Values after patent US9708331B2, “Metabotrophic glutamate receptor 5 modulators and methods of use thereof” (SUNOVION PHARMACEUTICALS INC., priority 2011, dated 2017).)
